Experimental data: ChEMBL document CHEMBL4251732, “Discovery of Novel Indoleamine 2,3-Dioxygenase 1 (IDO1) and Histone Deacetylase (HDAC) Dual Inhibitors” (ACS Med Chem Lett, 2018)
Calls of active or inactive are those of the source. The rule behind the calls is not given here.

Tests used:
[1] = biological target: T1, Indoleamine 2,3-dioxygenase 1 (Homo sapiens, UniProt P14902); assay: Inhibition of IDO1 in IFN-gamma-stimulated human HeLa cells assessed as decrease in kynurenine levels after 48 hrs; type: cell-based
[2] = test system: HCT-116; assay: Cell cycle arrest in human HCT116 cells assessed as accumulation at G2/M phase up to 48 hrs by propidium iodide staining based flow cytometry (reference value: 27.2%); type: functional
[3] = Cmax in Sprague-Dawley rat at 100 mg/kg, po administered as single dose via gavage by LC-MS/MS analysis; type: ADME, organism-based; set-up: dose 100 mg/kg, route oral; conditions: in vivo
[4] = Half life in mouse liver microsomes at 1 uM by LC-MS/MS analysis; type: ADME, microsome
[5] = test system: HCT-116; assay: Induction of apoptosis in human HCT116 cells after 48 hrs by Annexin V-FITC/propidium iodide staining based flow cytometry; type: functional, cell-based
[6] = Half life in immunocompetent C57BL/6 mouse implanted with mouse LLC cells at 100 mg/kg, po bid administered via gavage; type: ADME, organism-based; conditions: in vivo
[7] = biological target: Histone deacetylase 3 (Homo sapiens, UniProt O15379); assay: Inhibition of HDAC3 (unknown origin) using substrate 3 after 30 mins by fluorescence assay
[8] = Apparent clearance in mouse liver microsomes; type: ADME, microsome
[9] = test system: A549; assay: Antiproliferative activity against human A549 cells after 48 hrs by CCK-8 assay; type: functional, cell-based; conditions: A549, 48 h
[10] = test system: Lewis lung carcinoma cell line; assay: Antitumor activity against mouse LLC cells implanted in immunocompetent C57BL/6 mouse assessed as tumor growth inhibition at 100 mg/kg, po bid administered via gavage for 14 consecutive days measured every 4 days relative to control; type: functional; conditions: 96 h, read-out: TGI
[11] = test system: HT-29; assay: Antiproliferative activity against human HT-29 cells after 48 hrs by CCK-8 assay; type: functional, cell-based; conditions: HT-29, 48 h
[12] = AUC in immunocompetent C57BL/6 mouse implanted with mouse LLC cells at 100 mg/kg, po bid administered via gavage; type: ADME, organism-based; conditions: in vivo
[13] = test system: HCT-116; assay: Antiproliferative activity against human HCT116 cells after 48 hrs by CCK-8 assay; type: functional, cell-based; conditions: HCT-116, 48 h
[14] = Half life in Sprague-Dawley rat at 100 mg/kg, po administered as single dose via gavage by LC-MS/MS analysis; type: ADME, organism-based; conditions: in vivo
[15] = test system: HCT-116; assay: Cell cycle arrest in human HCT116 cells assessed as accumulation at G2/M phase by propidium iodide staining based flow cytometry; type: functional; conditions: TDE = time-dependent effect
[16] = Tmax in Sprague-Dawley rat at 2 mg/kg, iv administered as single dose by LC-MS/MS analysis; type: ADME, organism-based; conditions: in vivo
[17] = Solubility of the compound in water; type: physicochemical
[18] = biological target: Histone deacetylase 2 (Homo sapiens, UniProt Q92769); assay: Inhibition of HDAC2 (unknown origin) using substrate 3 after 30 mins by fluorescence assay
[19] = AUC (0 to infinity) in Sprague-Dawley rat at 100 mg/kg, po administered as single dose via gavage by LC-MS/MS analysis; type: ADME, organism-based; set-up: dose 100 mg/kg, time infinity, route oral; conditions: in vivo
[20] = biological target: T1, Indoleamine 2,3-dioxygenase 1; assay: Inhibition of recombinant human GST-tagged IDO1 (1 to 404 residues) using D-Tryptophan as substrate
[21] = test system: Mus musculus; assay: In vivo inhibition of IDO1 in wild type C57BL/6 mouse assessed as reduction in kynurenine levels in plasma at 100 mg/kg, po administered via gavage after 3 to 8 hrs by LC-MS/MS analysis; type: functional, organism-based
[22] = Half life in Sprague-Dawley rat at 2 mg/kg, iv administered as single dose by LC-MS/MS analysis; type: ADME, organism-based; conditions: in vivo
[23] = Tmax in Sprague-Dawley rat at 100 mg/kg, po administered as single dose via gavage by LC-MS/MS analysis; type: ADME, organism-based; conditions: in vivo
[24] = Cmax in Sprague-Dawley rat at 2 mg/kg, iv administered as single dose by LC-MS/MS analysis; type: ADME, organism-based; set-up: dose 2 mg/kg, route intravenous; conditions: in vivo
[25] = test system: HCT-116; assay: Induction of apoptosis in human HCT116 cells at 5 uM after 48 hrs by Annexin V-FITC/propidium iodide staining based flow cytometry relative to control; type: functional
[26] = Oral bioavailability in Sprague-Dawley rat at 100 mg/kg administered as single dose via gavage by LC-MS/MS analysis; type: ADME, organism-based; conditions: in vivo
[27] = Stability of the compound in PBS buffer after 24 hrs; type: physicochemical
[28] = test system: Lewis lung carcinoma cell line; assay: Antiproliferative activity against mouse LLC cells after 48 hrs by CCK-8 assay; type: functional, cell-based
[29] = biological target: Histone deacetylase 1 (Homo sapiens, UniProt Q13547); assay: Inhibition of recombinant human full length HDAC1 using fluorogenic substrate 3 after 30 mins by fluorescence assay
[30] = biological target: T2, Protein deacetylase HDAC6 (Homo sapiens, UniProt Q9UBN7); assay: Inhibition of HDAC6 (unknown origin) using substrate 3 after 30 mins by fluorescence assay
T2 sequence (Q9UBN7 whole entry): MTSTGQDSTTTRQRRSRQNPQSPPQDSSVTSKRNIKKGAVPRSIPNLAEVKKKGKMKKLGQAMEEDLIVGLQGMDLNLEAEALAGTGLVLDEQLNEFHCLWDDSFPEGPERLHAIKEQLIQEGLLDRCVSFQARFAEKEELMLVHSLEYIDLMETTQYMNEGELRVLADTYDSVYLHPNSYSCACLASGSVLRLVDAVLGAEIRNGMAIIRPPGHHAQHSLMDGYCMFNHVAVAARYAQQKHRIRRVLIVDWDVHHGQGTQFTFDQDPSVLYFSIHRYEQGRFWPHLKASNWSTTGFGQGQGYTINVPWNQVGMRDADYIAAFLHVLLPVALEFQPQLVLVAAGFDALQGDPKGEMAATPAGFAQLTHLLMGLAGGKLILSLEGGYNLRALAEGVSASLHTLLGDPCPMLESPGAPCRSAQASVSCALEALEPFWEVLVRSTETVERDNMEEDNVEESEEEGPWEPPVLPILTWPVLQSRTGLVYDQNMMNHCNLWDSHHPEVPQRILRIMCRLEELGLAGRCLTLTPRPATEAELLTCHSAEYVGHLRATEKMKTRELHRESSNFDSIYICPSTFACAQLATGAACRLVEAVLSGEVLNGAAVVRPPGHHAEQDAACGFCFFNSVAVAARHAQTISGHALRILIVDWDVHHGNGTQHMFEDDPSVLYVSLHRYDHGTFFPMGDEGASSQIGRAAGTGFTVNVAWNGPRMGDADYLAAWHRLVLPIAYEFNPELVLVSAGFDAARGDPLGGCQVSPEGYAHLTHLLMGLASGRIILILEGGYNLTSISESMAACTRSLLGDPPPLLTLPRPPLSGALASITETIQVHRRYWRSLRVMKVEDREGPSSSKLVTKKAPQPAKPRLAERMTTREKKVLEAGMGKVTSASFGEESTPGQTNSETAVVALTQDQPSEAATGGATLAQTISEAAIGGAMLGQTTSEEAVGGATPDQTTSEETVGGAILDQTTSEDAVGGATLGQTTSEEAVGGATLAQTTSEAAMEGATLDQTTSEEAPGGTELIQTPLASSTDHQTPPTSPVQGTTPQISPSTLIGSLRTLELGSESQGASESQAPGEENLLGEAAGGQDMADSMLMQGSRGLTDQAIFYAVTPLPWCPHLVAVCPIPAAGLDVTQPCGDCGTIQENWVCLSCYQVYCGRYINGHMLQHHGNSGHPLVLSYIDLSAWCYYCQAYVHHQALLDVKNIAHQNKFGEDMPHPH

[31] = test system: HCT-116; assay: Induction of apoptosis in human HCT116 cells at 10 uM after 48 hrs by Annexin V-FITC/propidium iodide staining based flow cytometry relative to control; type: functional
[32] = test system: HeLa; assay: Cytotoxicity against human HeLa cells assessed as inhibition of cell growth after 48 hrs by CCK-8 assay; type: cell-based
[33] = test system: Mus musculus; assay: Toxicity in immunocompetent C57BL/6 mouse assessed as body weight loss at 100 mg/kg, po bid administered via gavage for 14 consecutive days measured 3 times per week; type: organism-based; conditions: in vivo
[34] = test system: HCT-116; assay: Induction of apoptosis in human HCT116 cells at 20 uM after 48 hrs by Annexin V-FITC/propidium iodide staining based flow cytometry relative to control; type: functional
[35] = AUC (0 to infinity) in Sprague-Dawley rat at 2 mg/kg, iv administered as single dose by LC-MS/MS analysis; type: ADME, organism-based; set-up: dose 2 mg/kg, time infinity, route intravenous; conditions: in vivo
[36] = test system: CT26; assay: Antiproliferative activity against mouse CT26 cells after 48 hrs by CCK-8 assay; type: functional, cell-based; conditions: CT26, 48 h
[37] = Ratio of LC50 for human HeLa cells to EC50 for IDO1 in IFN-gamma-stimulated human HeLa cells; type: toxicity

T1 sequence (P14902 whole entry): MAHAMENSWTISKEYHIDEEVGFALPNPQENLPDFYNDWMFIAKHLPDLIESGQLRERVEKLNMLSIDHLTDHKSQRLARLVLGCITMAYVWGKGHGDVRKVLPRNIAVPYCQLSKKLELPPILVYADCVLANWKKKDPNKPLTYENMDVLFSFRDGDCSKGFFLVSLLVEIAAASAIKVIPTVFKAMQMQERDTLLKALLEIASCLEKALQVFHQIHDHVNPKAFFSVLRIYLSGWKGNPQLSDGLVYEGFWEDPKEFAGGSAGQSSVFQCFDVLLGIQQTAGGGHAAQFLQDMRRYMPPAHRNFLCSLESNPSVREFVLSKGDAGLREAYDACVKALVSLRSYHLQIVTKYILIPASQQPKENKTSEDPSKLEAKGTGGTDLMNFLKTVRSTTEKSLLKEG
Chain of Histone deacetylase 2 (Q92769 whole entry): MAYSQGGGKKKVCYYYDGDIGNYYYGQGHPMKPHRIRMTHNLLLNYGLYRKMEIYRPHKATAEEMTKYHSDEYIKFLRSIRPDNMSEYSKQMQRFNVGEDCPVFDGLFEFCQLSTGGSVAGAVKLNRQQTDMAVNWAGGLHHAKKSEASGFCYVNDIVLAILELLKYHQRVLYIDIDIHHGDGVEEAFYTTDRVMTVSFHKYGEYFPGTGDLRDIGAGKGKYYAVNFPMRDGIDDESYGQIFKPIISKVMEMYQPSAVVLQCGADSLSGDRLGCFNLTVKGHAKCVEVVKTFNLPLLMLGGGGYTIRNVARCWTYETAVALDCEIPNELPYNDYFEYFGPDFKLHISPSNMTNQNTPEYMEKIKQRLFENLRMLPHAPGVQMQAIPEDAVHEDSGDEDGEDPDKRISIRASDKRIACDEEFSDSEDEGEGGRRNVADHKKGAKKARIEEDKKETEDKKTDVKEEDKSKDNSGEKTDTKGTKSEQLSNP
Chain of Histone deacetylase 3 (O15379 whole entry): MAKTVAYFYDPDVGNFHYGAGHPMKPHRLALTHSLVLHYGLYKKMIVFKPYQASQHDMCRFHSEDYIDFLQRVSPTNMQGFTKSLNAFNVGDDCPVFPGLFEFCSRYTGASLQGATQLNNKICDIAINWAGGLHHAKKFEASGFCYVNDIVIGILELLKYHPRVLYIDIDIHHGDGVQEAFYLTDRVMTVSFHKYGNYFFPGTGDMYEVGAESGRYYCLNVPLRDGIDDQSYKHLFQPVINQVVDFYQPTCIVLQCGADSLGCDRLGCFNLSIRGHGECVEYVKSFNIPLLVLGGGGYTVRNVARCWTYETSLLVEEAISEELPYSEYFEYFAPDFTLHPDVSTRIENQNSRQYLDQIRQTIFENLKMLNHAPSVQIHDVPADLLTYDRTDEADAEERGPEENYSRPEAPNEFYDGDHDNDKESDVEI
Chain of Histone deacetylase 1 (Q13547 whole entry): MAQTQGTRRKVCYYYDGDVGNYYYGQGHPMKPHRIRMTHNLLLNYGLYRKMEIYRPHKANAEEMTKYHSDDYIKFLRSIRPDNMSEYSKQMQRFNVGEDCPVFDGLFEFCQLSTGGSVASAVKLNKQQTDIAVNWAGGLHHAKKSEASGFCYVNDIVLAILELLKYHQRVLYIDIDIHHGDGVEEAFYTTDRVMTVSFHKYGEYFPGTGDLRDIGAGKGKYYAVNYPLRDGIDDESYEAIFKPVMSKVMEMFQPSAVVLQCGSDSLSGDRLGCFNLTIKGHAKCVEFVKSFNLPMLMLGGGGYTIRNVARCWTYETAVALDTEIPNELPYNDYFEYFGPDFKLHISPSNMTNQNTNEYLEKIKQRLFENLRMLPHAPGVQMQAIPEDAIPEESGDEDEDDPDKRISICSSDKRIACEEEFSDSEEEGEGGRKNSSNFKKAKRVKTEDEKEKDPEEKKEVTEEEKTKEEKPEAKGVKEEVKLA

Nc1ccccc1NC(=O)c1ccc(C(=O)NCCNc2nonc2/C(=N/O)Nc2ccc(F)c(Br)c2)cc1
EC50 [1]: 0.41 µM | Activity [2]: 47.4% | Cmax [3]: 5.76 µg/mL | half-life at 1 µM [4]: 0.806 h | Activity [5]: Dose-dependent effect | half-life [6]: 3.4 h | IC50 [7]: 0.045 µM | CL(app) [8]: 28.7 µL/min/mg | IC50 [9]: 16.7 µM | inhibition in vivo at 100 mg/kg [10]: 56% | IC50 [11]: 11.7 µM | AUC [12]: 60 µM·h | IC50 [13]: 5.12 µM | half-life [14]: 3.4 h | Activity [15]: Tde | Tmax [16]: 4.98 min | solubility [17]: < 0.01 mg/mL | IC50 [18]: 0.179 µM | AUC(0-inf) [19]: 33.5 µg·h/mL | IC50 [20]: 0.069 µM | inhibition [21]: Active | half-life [22]: 1.4 h | Tmax [23]: 2 h | Cmax [24]: 12 µg/mL | Activity [25]: 18.8% | bioavailability [26]: 18% | Stability [27]: Stable | IC50 [28]: 17.6 µM | IC50 [29]: 0.0665 µM | IC50 [30]: 0.07 µM | Activity [31]: 29.9% | LC50 [32]: 24.77 µM | Activity [33]: Non-Toxic | Activity [34]: 48.9% | AUC(0-inf) [35]: 3.65 µg·h/mL | IC50 [36]: 59.8 µM | selectivity ratio [37]: 60.4
